According to ChEMBL document CHEMBL2413072, “Synthesis and in vitro anticancer studies of novel C-2 arylidene congeners of lantadenes” (2013):

Tests used:
Type in all cases: functional
KM12 [1] = experiment: Growth inhibition of human KM12 cells assessed as cell growth at 10^-8 M by sulforhodamine B assay; details: read-out: Activity
KM12 [2] = experiment: Growth inhibition of human KM12 cells assessed as cell growth at 10^-7 M by sulforhodamine B assay; details: read-out: Activity
PC-3 [3] = experiment: Growth inhibition of human PC3 cells assessed as cell growth at 10^-6 M by sulforhodamine B assay; details: read-out: Activity
HOP-92 [4] = experiment: Growth inhibition of human HOP92 cells assessed as growth inhibition at 10 uM by sulforhodamine B assay; details: read-out: GI
PC-3 [5] = experiment: Growth inhibition of human PC3 cells assessed as growth inhibition at 10 uM by sulforhodamine B assay; details: read-out: GI
RXF 393 = experiment: Growth inhibition of human RXF393 cells assessed as cell growth at 10 uM by sulforhodamine B assay; details: read-out: Activity
Malme-3M = experiment: Growth inhibition of human MALME-3M cells assessed as cell growth at 10^-8 M by sulforhodamine B assay; details: read-out: Activity
NCI-H522 = experiment: Growth inhibition of human NCI-H522 cells assessed as cell growth at 10 uM by sulforhodamine B assay; details: read-out: Activity
MCF7 = experiment: Growth inhibition of human MCF7 cells assessed as cell growth at 10^-8 M by sulforhodamine B assay; details: read-out: Activity
[6] = Growth inhibition of human Hs 578T cells assessed as cell growth at 10^-7 M by sulforhodamine B assay; details: read-out: Activity
786-0 = experiment: Growth inhibition of human 786-0 cells assessed as cell growth at 10 uM by sulforhodamine B assay; details: read-out: Activity
T47D [7] = experiment: Growth inhibition of human T47D cells assessed as cell growth at 10^-4 M by sulforhodamine B assay; details: read-out: Activity
HCT-15 [8] = experiment: Growth inhibition of human HCT15 cells assessed as cell growth at 10 uM by sulforhodamine B assay; details: read-out: Activity
HOP-62 = experiment: Growth inhibition of human HOP62 cells assessed as growth inhibition at 10 uM by sulforhodamine B assay; details: read-out: GI
HT-29 = experiment: Growth inhibition of human HT-29 cells assessed as growth inhibition at 10 uM by sulforhodamine B assay; details: read-out: GI
IGROV-1 [9] = experiment: Growth inhibition of human IGROV1 cells assessed as cell growth at 10 uM by sulforhodamine B assay; details: read-out: Activity
SK-MEL-28 = experiment: Growth inhibition of human SK-MEL-28 cells assessed as growth inhibition at 10 uM by sulforhodamine B assay; details: read-out: GI
SNB-75 = experiment: Growth inhibition of human SNB75 cells assessed as cell growth at 10^-6 M by sulforhodamine B assay; details: read-out: Activity
UACC-257 [10] = experiment: Growth inhibition of human UACC257 cells by sulforhodamine B assay
[11] = Growth inhibition of human HCC2998 cells assessed as cell growth at 10^-4 M by sulforhodamine B assay; details: HCC 2998, read-out: Activity
UACC-257 [12] = experiment: Growth inhibition of human UACC257 cells assessed as cell growth at 10^-7 M by sulforhodamine B assay; details: read-out: Activity
IGROV-1 [13] = experiment: Growth inhibition of human IGROV1 cells assessed as cell growth at 10^-7 M by sulforhodamine B assay; details: read-out: Activity
HCT-15 [14] = experiment: Growth inhibition of human HCT15 cells assessed as cell growth at 10^-8 M by sulforhodamine B assay; details: read-out: Activity
HOP-92 [15] = experiment: Growth inhibition of human HOP92 cells by sulforhodamine B assay
MOLT-4 [16] = experiment: Growth inhibition of human MOLT4 cells assessed as cell growth at 10 uM by sulforhodamine B assay; details: read-out: Activity
NCI-H23 = experiment: Growth inhibition of human NCI-H23 cells assessed as cell growth at 10^-4 M by sulforhodamine B assay; details: read-out: Activity
OVCAR-5 = experiment: Growth inhibition of human OVCAR5 cells assessed as growth inhibition at 10 uM by sulforhodamine B assay; details: read-out: GI
SN12C = experiment: Growth inhibition of human SN12C cells assessed as cell growth at 10^-7 M by sulforhodamine B assay; details: read-out: Activity
SNB-19 = experiment: Growth inhibition of human SNB19 cells assessed as cell growth at 10^-4 M by sulforhodamine B assay; details: read-out: Activity
LOX IMVI = experiment: Growth inhibition of human LOXIMVI cells assessed as growth inhibition at 10 uM by sulforhodamine B assay; details: read-out: GI
K562 = experiment: Growth inhibition of human K562 cells assessed as cell growth at 10^-8 M by sulforhodamine B assay; details: read-out: Activity
COLO 205 = experiment: Growth inhibition of human COLO205 cells assessed as cell growth at 10^-4 M by sulforhodamine B assay; details: read-out: Activity
UACC-62 = experiment: Growth inhibition of human UACC62 cells assessed as cell growth at 10 uM by sulforhodamine B assay; details: read-out: Activity
OVCAR-3 = experiment: Growth inhibition of human OVCAR3 cells by sulforhodamine B assay
MOLT-4 [17] = experiment: Growth inhibition of human MOLT4 cells assessed as growth inhibition at 10 uM by sulforhodamine B assay; details: read-out: GI
CCRF-CEM = experiment: Growth inhibition of human CCRF-CEM cells assessed as cell growth at 10^-6 M by sulforhodamine B assay; details: read-out: Activity
T47D [18] = experiment: Growth inhibition of human T47D cells assessed as growth inhibition at 10 uM by sulforhodamine B assay; details: read-out: GI
T47D [19] = experiment: Growth inhibition of human T47D cells assessed as cell growth at 10 uM by sulforhodamine B assay; details: read-out: Activity
TK-10 = experiment: Growth inhibition of human TK10 cells assessed as cell growth at 10 uM by sulforhodamine B assay; details: read-out: Activity
SR [20] = experiment: Growth inhibition of human SR cells assessed as cell growth at 10 uM by sulforhodamine B assay; details: read-out: Activity
NCI-H322M = experiment: Growth inhibition of human NCI-H322M cells assessed as cell growth at 10^-4 M by sulforhodamine B assay; details: read-out: Activity
OVCAR-8 = experiment: Growth inhibition of human OVCAR8 cells assessed as cell growth at 10 uM by sulforhodamine B assay; details: read-out: Activity
MDA-MB-231 = experiment: Growth inhibition of human MDA-MB-231 cells assessed as growth inhibition at 10 uM by sulforhodamine B assay; details: read-out: GI
SW-620 = experiment: Growth inhibition of human SW620 cells assessed as growth inhibition at 10 uM by sulforhodamine B assay; details: read-out: GI
SR [21] = experiment: Growth inhibition of human SR cells assessed as growth inhibition at 10 uM by sulforhodamine B assay; details: read-out: GI
HCT-15 [22] = experiment: Growth inhibition of human HCT15 cells assessed as cell growth at 10^-7 M by sulforhodamine B assay; details: read-out: Activity
[23] = read-out: LC50 (the source's name)
[24] = read-out: pLC50 (the source's name) (converted)

Structure (SMILES): C/C=C(/C)C(=O)O[C@@H]1CC(C)(C)C[C@H]2C3=CC[C@@H]4[C@@]5(C)CCC(=O)C(C)(C)[C@@H]5CC[C@@]4(C)[C@]3(C)CC[C@@]12C(=O)O [LANTADENE A]
- growth at 0.01 µM (KM12 [1]): 103%
- growth at 0.1 µM (KM12 [2]): 102%
- growth at 1 µM (PC-3 [3]): 68%
- inhibition of growth at 10 µM (HOP-92 [4]): 56.3%
- inhibition of growth at 10 µM (PC-3 [5]): 62.8%
- growth at 10 µM (RXF 393): 88.5%
- growth at 0.01 µM (Malme-3M): 98%
- growth at 10 µM (NCI-H522): 66.1%
- growth at 0.01 µM (MCF7): 94%
- growth at 0.1 µM [6]: 93%
- growth at 10 µM (786-0): 44.5%
- growth at 100 µM (T47D [7]): 23%
- growth at 10 µM (HCT-15 [8]): 30.2%
- inhibition of growth at 10 µM (HOP-62): 24.4%
- inhibition of growth at 10 µM (HT-29): 32.1%
- growth at 10 µM (IGROV-1 [9]): 71.6%
- inhibition of growth at 10 µM (SK-MEL-28): 17.3%
- growth at 1 µM (SNB-75): 88%
- GI50 (UACC-257 [10]; read-out: GI50): 4.81 µM
- CC50 (UACC-257 [10]; [23]): > 100 µM
- TGI (UACC-257 [10]; read-out: TGI): > 100 µM
- GI50 (UACC-257 [10]; read-out: pGI50 (converted)): 4.79 µM
- CC50 (UACC-257 [10]; [24]): > 100 µM
- TGI (UACC-257 [10]; read-out: pTGI (converted)): > 100 µM
- growth at 100 µM [11]: 2%
- growth at 0.1 µM (UACC-257 [12]): 93%
- growth at 0.1 µM (IGROV-1 [13]): 111%
- growth at 0.01 µM (HCT-15 [14]): 100%
- GI50 (HOP-92 [15]; read-out: GI50): 1.19 µM
- CC50 (HOP-92 [15]; [23]): > 100 µM
- TGI (HOP-92 [15]; read-out: TGI): 5.36 µM
- GI50 (HOP-92 [15]; read-out: pGI50 (converted)): 1.2 µM
- CC50 (HOP-92 [15]; [24]): > 100 µM
- TGI (HOP-92 [15]; read-out: pTGI (converted)): 5.37 µM
- growth at 10 µM (MOLT-4 [16]): 43.3%
- growth at 100 µM (NCI-H23): 12%
- inhibition of growth at 10 µM (OVCAR-5): < 10%
- growth at 0.1 µM (SN12C): 95%
- growth at 100 µM (SNB-19): 23%
- inhibition of growth at 10 µM (LOX IMVI): 38.2%
- growth at 0.01 µM (K562): 110%
- growth at 100 µM (COLO 205): -51%
- growth at 10 µM (UACC-62): 49.9%
- GI50 (OVCAR-3; read-out: GI50): 5.89 µM
- CC50 (OVCAR-3; [23]): > 100 µM
- TGI (OVCAR-3; read-out: TGI): > 100 µM
- GI50 (OVCAR-3; read-out: pGI50 (converted)): 5.89 µM
- CC50 (OVCAR-3; [24]): > 100 µM
- TGI (OVCAR-3; read-out: pTGI (converted)): > 100 µM
- inhibition of growth at 10 µM (MOLT-4 [17]): 56.7%
- growth at 1 µM (CCRF-CEM): 92%
- inhibition of growth at 10 µM (T47D [18]): 36.1%
- growth at 10 µM (T47D [19]): 63.9%
- growth at 10 µM (TK-10): 83.3%
- growth at 10 µM (SR [20]): 69.5%
- growth at 100 µM (NCI-H322M): 17%
- growth at 10 µM (OVCAR-8): 63.7%
- inhibition of growth at 10 µM (MDA-MB-231): 24.3%
- inhibition of growth at 10 µM (SW-620): 31.3%
- inhibition of growth at 10 µM (SR [21]): 30.5%
- growth at 0.1 µM (HCT-15 [22]): 106%
